One experiment concerns NCI-H1975. The experiment can be described thus: cells. To be noted: Homo sapiens, NCI-H1975, 72 h.
The subject of a further experiment is HepG2. The experiment can be described thus: cells. To be noted: Homo sapiens, HepG2, 72 h.
The test system of another experiment is MCF7. Put plainly: cells. As to conditions: Homo sapiens, MCF7, 72 h.
For the next experiment, the system named is A549. Put plainly: cells. To be noted: Homo sapiens, A549, 72 h.
Another experiment deals with A-431. The experiment can be described thus: cells. To be noted: Homo sapiens, A-431, 72 h.
For the next experiment, the system named is L02. The experiment can be described thus: cells. As to conditions: Homo sapiens, L02, 72 h.
A further experiment concerns SGC-7901. The experiment can be described thus: cells. As to conditions: Homo sapiens, SGC-7901, 72 h.
Experiment [1] concerns PANC-1. Put plainly: Induction of apoptosis in human PANC-1 cells assessed as increase in cleaved caspase-9 expression level at 2 uM incubated for 24 hrs by Western blot analysis. Format: functional, cell-based. (In general: Immunoblotting shows a protein as a band on a membrane.)
The target of experiment [2] is Serine/threonine-protein kinase PLK1 (Homo sapiens, UniProt P53350). The experiment can be described thus: Inhibition of PLK1 (unknown origin).
Experiment [3] has as its system PANC-1. Put plainly: Cell cycle arrest in human PANC-1 cells assessed as accumulation of cells at GO-G1 phase at 2 uM incubated for 24 hrs by PI/RNase staining based flow cytometric analysis. Format: functional. (In general: Flow cytometry measures light scatter and fluorescence of single cells or particles in a stream.)
Experiment [4] concerns PANC-1. The experiment can be described thus: Induction of apoptosis in human PANC-1 cells assessed as increase in cleaved caspase-3 expression level at 2 uM incubated for 24 hrs by Western blot analysis. Type of experiment: functional, cell-based.
In the next experiment the test system is HT-29. Put plainly: Induction of apoptosis in human HT-29 cells assessed as apoptotic ratio at 2 uM incubated for 24 hrs by flow cytometric analysis. Type of experiment: functional.
The test system of experiment [5] is PANC-1. The experiment can be described thus: Induction of apoptosis in human PANC-1 cells assessed as increase in cleaved PARP expression level at 2 uM incubated for 24 hrs by Western blot analysis. Type of experiment: functional, cell-based.
The subject of experiment [6] is PANC-1. Put plainly: Induction of apoptosis in human PANC-1 cells assessed as increase in Bax expression at 2 uM incubated for 24 hrs by Western blot analysis. Format: functional, cell-based.
Experiment [7] deals with PANC-1. Put plainly: Induction of apoptosis in human PANC-1 cells assessed as increase in Cytochrome C expression level at 2 uM incubated for 24 hrs by Western blot analysis. Type of experiment: functional, cell-based.
For experiment [8], the system named is PANC-1. Put plainly: Induction of apoptosis in human PANC-1 cells assessed as apoptotic cells at 2 uM incubated for 24 hrs by flow cytometric analysis relative to control. Format: functional.

pIC50: −log10 of the molar value. The source made the active and inactive calls. The calls are words filed in the database; no cut-off is given here.

Chain of Serine/threonine-protein kinase PLK1 (P53350 whole entry): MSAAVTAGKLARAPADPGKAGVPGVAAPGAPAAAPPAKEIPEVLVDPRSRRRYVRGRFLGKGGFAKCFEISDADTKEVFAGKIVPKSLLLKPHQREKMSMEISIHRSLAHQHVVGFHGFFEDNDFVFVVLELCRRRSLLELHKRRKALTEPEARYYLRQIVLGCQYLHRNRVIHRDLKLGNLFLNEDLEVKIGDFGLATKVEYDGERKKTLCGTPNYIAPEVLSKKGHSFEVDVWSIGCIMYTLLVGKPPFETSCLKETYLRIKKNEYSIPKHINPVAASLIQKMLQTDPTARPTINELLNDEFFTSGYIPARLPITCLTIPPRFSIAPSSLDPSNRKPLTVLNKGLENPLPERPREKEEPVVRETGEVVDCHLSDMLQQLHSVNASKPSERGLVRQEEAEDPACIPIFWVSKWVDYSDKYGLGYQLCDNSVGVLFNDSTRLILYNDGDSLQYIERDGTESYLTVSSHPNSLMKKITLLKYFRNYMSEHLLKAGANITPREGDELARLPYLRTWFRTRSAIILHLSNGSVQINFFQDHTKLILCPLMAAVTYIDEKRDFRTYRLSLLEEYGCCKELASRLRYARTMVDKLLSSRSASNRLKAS
Description for A-431: Cytotoxicity against human A-431 cells assessed as inhibition of cell growth incubated for 72 hrs by MTT assay
Description for A549: Cytotoxicity against human A549 cells assessed as inhibition of cell growth incubated for 72 hrs by MTT assay
Description for HepG2: Cytotoxicity against human HepG2 cells assessed as inhibition of cell growth incubated for 72 hrs by MTT assay
Description for L02: Cytotoxicity against human L02 cells assessed as inhibition of cell growth incubated for 72 hrs by MTT assay
Description for MCF7: Cytotoxicity against human MCF7 cells assessed as inhibition of cell growth incubated for 72 hrs by MTT assay
Description for NCI-H1975: Cytotoxicity against human NCI-H1975 cells assessed as inhibition of cell growth incubated for 72 hrs by MTT assay
Description for SGC-7901: Cytotoxicity against human SGC-7901 cells assessed as inhibition of cell growth incubated for 72 hrs by MTT assay

What is called pIC50 is −log10 of the IC50, conventionally taken in molar units. For `COc1cc(OC)c(/C=C/S(=O)(=O)Cc2ccc(OC)c(NC(=O)CCCCC(=O)Nc3ccccc3N)c2)c(OC)c1`, the pIC50 in the experiment on NCI-H1975 is 4.73; in the experiment on HepG2 it was 4.56; in the experiment on MCF7 it was 4.93; in the experiment on A549 it was 4.78; in the experiment on A-431, 4.69; in the experiment with L02 it was < 4.40. In addition, the pIC50 in the experiment with SGC-7901 is 4.76.
Consider `COc1cc(OC)c(/C=C/S(=O)(=O)Cc2ccc(OC)c(NCCCCCC(=O)Nc3ccccc3N)c2)c(OC)c1`, for which the pIC50 is 5.32 in the experiment on NCI-H1975; 5.12 with HepG2; 4.98 in the experiment on MCF7; 4.89 in the experiment on A549; 5.35 in the experiment with A-431; < 4.40 in the experiment with L02. The compound also showed a pIC50 in the experiment on SGC-7901 of 5.05.
As for `COc1cc(OC)c(/C=C/S(=O)(=O)Cc2ccc(OC)c(NCCC(=O)NO)c2)c(OC)c1`, the negative logarithm of the IC50 (pIC50) is 5.40 in the experiment with NCI-H1975; 4.83 in the experiment with HepG2; 5.26 in the experiment on MCF7; 5.03 in the experiment on A549; 5.69 in the experiment with A-431; < 4.40 in the experiment with L02. Further, in the experiment with SGC-7901, the negative logarithm of the IC50 (pIC50) was 5.26.
For the compound `O=C(CCCCCCC(=O)Nc1ccccc1)NO` [VORINOSTAT], the result in the experiment with PANC-1 [1], with PANC-1 [3], with PANC-1 [4], in the experiment on PANC-1 [5], with PANC-1 [6] and in the experiment with PANC-1 [7] was Active. The pIC50 in experiment [2] was 5.80; with SGC-7901, 5.54. In addition, the Activity in the experiment on HT-29 worked out at 21.4%; in the experiment on PANC-1 [8] it was 20.5%.
For the compound `COc1cc(OC)c(/C=C/S(=O)(=O)Cc2ccc(OC)c(NCCC(=O)Nc3ccccc3N)c2)c(OC)c1`, the pIC50 with NCI-H1975 was 5.29; in the experiment on HepG2, 5.14; in the experiment with MCF7, 4.90; in the experiment with A549, 4.95; with A-431, 5.06; in the experiment with L02, < 4.40. Besides, the pIC50 in the experiment on SGC-7901 was 4.88.
On to `COc1cc(OC)c(/C=C/S(=O)(=O)Cc2ccc(OC)c(NC(=O)CCCCC(=O)NO)c2)c(OC)c1`, for which the pIC50 in the experiment on NCI-H1975 is 5.02; with HepG2 it was 4.54; in the experiment on MCF7, 5.01; with A549, 5.07; with A-431 it was 4.73; in the experiment on L02 it was < 4.40. For the same compound, the pIC50 in the experiment with SGC-7901 is 4.91.

These data come from ChEMBL document CHEMBL5537193, “Multitargeting HDAC Inhibitors Containing a RAS/RAF Protein Interfering Unit” (J Med Chem, 2024).
